The source of these data is patent US7449463B2, “Morpholinyl containing benzimidazoles as inhibitors of respiratory syncytial virus replication” (Tibotec Pharmaceuticals Ltd., priority 2003, dated 2008).

Each structure is given as a SMILES string.

Series [1] has as its system Respiratory Syncytial Virus. As to the kind of experiment: microbe, parasite or virus in culture. The format is cell-based. Conditions: human respiratory syncytial virus. The gist of the method:
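HeLa cells infected with ~100 TCID50 RSV in Eagle's Basal Medium with 5% FCS, five-fold compound dilutions, 37° C, 5% CO2 for 7 days. Viability by MTT (A540 minus A690); EC50 for protection against cytopathic effect and CC50 from mock-infected wells, SI = CC50/EC50.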

The mark [2] stands for this setting: 168 h, RSV-infected HeLa cells, MTT readout seven days after infection, −log of EC50 in molar units.
Where [3] appears, read: pEC50 (−log of EC50 when expressed in molar units), protection against RSV cytopathology.

The compound `Cc1cc(C)cc(NCc2ccc3nc(NCCCN4CC(C)OC(C)C4)n(Cc4nc(C)ccc4O)c3c2)c1` (centres unmarked) [Compound 172, 2-{2-[3-(2,6-dimethyl-morpholin-4-yl)-propylamino]-6-[(3,5-dimethyl-phenylamino)-methyl]-benzoimidazol-1-ylmethyl}-6-methyl-pyridin-3-ol] yielded a melting point of 192 °C. In series [1] (setting [2]), the EC50 is 15.8 nM.

`Cc1cc(C)c2nc(N(CC(C)N3CCOCC3)C3CCNCC3)n(Cc3nc(C)ccc3O)c2c1` (centres unmarked) [Compound 161, 2-[4,6-dimethyl-2-(2-morpholin-4-ylpropyl-piperidin-4-ylamino)-benzoimidazol-1-ylmethyl]-6-methyl-pyridin-3-ol] showed a melting point of 223 °C. The compound also had an EC50 in series [1] (setting [2]) of 2.51 nM.

In the case of `Cc1cc(C)cc(N(CCCC(N)=O)Cc2ccc3nc(NCCCN4CCOCC4)n(Cc4cccc(Br)n4)c3c2)c1` [Compound 261, 4-[[3-(6-Bromo-pyridin-2-ylmethyl)-2-(3-morpholin-4-yl-propyl-amino)-3H-benzoimidazol-5-ylmethyl]-(3,5-dimethyl-phenyl)-amino]-butyramide], the melting point amounted to 82 °C. In addition, in series [1] (setting [3]), the midpoint of the response, the EC50, lay at 31.6 nM.

As for `Cc1ccc(CCCO)c(NCc2ccc3nc(NCCCN4CCOCC4)n(Cc4cccc5c4ncn5C)c3c2)c1` [Compound 218, 3-(4-Methyl-2-{[3-(1-methyl-1H-benzoimidazol-4-ylmethyl)-2-(3-morpholin-4-yl-propylamino)-3H-benzoimidazol-5-ylmethyl]-amino}-phenyl)-propan-1-ol], the melting point is 198 °C. Besides, in series [1] (setting [3]), the midpoint of the response, the EC50, lay at 2.51 nM.

Regarding `Cc1cc(C)cc(NCc2ccc3nc(NC4CCNC(CCN5CCOCC5)C4)n(Cc4nc(C)ccc4O)c3c2)c1` (centres unmarked) [Compound 163, 2-{6-[(3,5-dimethyl-phenylamino)-methyl]-2-[2-(2-morpholin-4-yl-ethyl)-piperidin-4-ylamino]-benzoimidazol-1-ylmethyl}-6-methyl-pyridin-3-ol], the melting point worked out at 150 °C. The EC50 in series [1] (setting [2]) is 12.6 nM.

Compound `Cc1cc(C)c2c(c1)nc(NCCCN1CCOCC1)n2Cc1nc(C)ccc1O` [Compound 156, 2-[5,7-dimethyl-2-(3-morpholin-4-yl-propylamino)-benzoimidazol-1-ylmethyl]-6-methyl-pyridin-3-ol] had a melting point of 234 °C. It took 12600 nM to reach a half-maximal effect in series [1] (setting [2]) (EC50).

In turn, `Cc1ccc(I)c(NCc2ccc3nc(NCCCN4CCOCC4)n(Cc4nc(C)ccc4O)c3c2)c1` [Compound 50] yielded a melting point of 225 °C. In series [1] (setting [2]), this compound had an EC50 of 50.1 nM.

On to `Cc1ccc(O)c(Cn2c(NC3CCNC(CCN4CCOCC4)C3)nc3ccc(CCc4ccccc4)cc32)n1` (centres unmarked) [Compound 165, 6-methyl-2-{2-[2-(2-morpholin-4-yl-ethyl)-piperidin-4-ylamino]-6-phenethyl-benzoimidazol-1-ylmethyl}-pyridin-3-ol], for which the melting point came out at 159 °C. In series [1] (setting [2]), this compound gave an EC50 of 126 nM.

On to `Cc1cc(C)c2nc(NCCCN3CCOCC3)n(Cc3nc(C)ccc3O)c2c1` [Compound 154, 2-[4,6-dimethyl-2-(3-morpholin-4-yl-propylamino)-benzoimidazol-1-yl-methyl]-6-methyl-pyridin-3-ol], for which the melting point came out at 228 °C. This compound gave an EC50 in series [1] (setting [2]) of 126 nM.

`Cc1cc(C)cc(N(CCCC(N)=O)Cc2ccc3nc(NCCCN4CCOCC4)n(Cc4cccc5cccnc45)c3c2)c1` [Compound 223, 4-{(3,5-Dimethyl-phenyl)-[2-(3-morpholin-4-yl-propylamino)-3-quinolin-8-ylmethyl-3H-benzoimidazol-5-ylmethyl]-amino}-butyramide] displayed a melting point of 154 °C. The EC50 in series [1] (setting [3]) was 3.16 nM.

In turn, `Cc1cc(C)cc(N(CCCC(N)=O)Cc2ccc3nc(NCCCN4CCOCC4)n(Cc4nc(C)ccc4O)c3c2)c1` [Compound 59, 2-[6-{[(3,5-dimethyl-phenyl)-(3-aminocarbonyl-propyl)-amino]-methyl}-2-(3-morpholin-4-yl-propylamino)-benzimidazol-1-ylmethyl]-6-methyl-pyridin-3-ol] gave a melting point of 170 °C. The EC50 in series [1] (setting [2]) is 0.251 nM.

Regarding `CCn1ncc(Cc2ccc3nc(NCCCN4CCOCC4)n(Cc4nc(C)ccc4O)c3c2)c1NCCO` [Compound 152], the melting point was found to be 168 °C. The compound also gave an EC50 in series [1] (setting [2]) of 7.94 nM.

`Cc1cc(C)cc(N(CCO)Cc2ccc3nc(NCCCN4CCOCC4)n(Cc4nc(C)ccc4O)c3c2)c1` [Compound 58, 2-[6-{[(3,5-dimethyl-phenyl)-(2-hydroxy-ethyl)-amino]-methyl}-2-(3-morpholin-4-yl-propylamino)-benzimidazol-1-ylmethyl]-6-methyl-pyridin-3-ol] came in with a melting point of 180 °C. Besides, the EC50 in series [1] (setting [2]) is 0.398 nM.

Compound `Cc1cc(C)cc(N(CCCC(N)=O)Cc2ccc3nc(NCCCN4CCOCC4)n(C4CCCc5nc(C)c(C)nc54)c3c2)c1` (centres unmarked) [Compound 213, 4-{(3,5-Dimethyl-phenyl)-[3-(2,3-dimethyl-5,6,7,8-tetrahydro-quinoxalin-5-yl)-2-(3-morpholin-4-yl-propylamino)-3H-benzoimidazol-5-ylmethyl]-amino}-butyramide] showed a melting point of 109 °C. Moreover, in series [1] (setting [3]), the EC50 is 1.58 nM.

In turn, `Cc1cc(C)cc(N(CCO)Cc2ccc3nc(NCCCN4CCOCC4)n(Cc4nc(C)c(C)nc4C)c3c2)c1` [Compound 233, 2-{(3,5-Dimethyl-phenyl)-[2-(3-morpholin-4-yl-propylamino)-3-(3,5,6-trimethyl-pyrazin-2-ylmethyl)-3H-benzoimidazol-5-ylmethyl]-amino}-ethanol] had a melting point of 140 °C. In series [1] (setting [3]), this compound had an EC50 of 5.01 nM.

In the case of `Cc1ccc(CCCO)c(NCc2ccc3nc(NCCCN4CCOCC4)n(Cc4nc(C)c(C)nc4C)c3c2)c1` [Compound 255, 3-(4-Methyl-2-{[2-(3-morpholin-4-yl-propylamino)-3-(3,5,6-trimethyl-pyrazin-2-ylmethyl)-3H-benzoimidazol-5-ylmethyl]-amino}-phenyl)-propan-1-ol], the melting point came to 120 °C. In series [1] (setting [3]), this compound showed an EC50 of 25.1 nM.
